Data published in ChEMBL document CHEMBL5465560, “Selectivity Literature for EUbOPEN Chemogenomic Library” (2024).

Key:
[1] = biological target: Non-receptor tyrosine-protein kinase TYK2 (Homo sapiens, UniProt P29597); experiment: Selectivity interaction (KinomeScan (DiscoverX)) EUB0000595a TYK2; conditions: at 10 µM
[2] = biological target: T1, Cyclin-dependent kinase 11A (Homo sapiens) (UniProt Q9UQ88); experiment: Selectivity interaction (KinomeScan (DiscoverX)) EUB0000045b CDK11A
T1 sequence (whole entry): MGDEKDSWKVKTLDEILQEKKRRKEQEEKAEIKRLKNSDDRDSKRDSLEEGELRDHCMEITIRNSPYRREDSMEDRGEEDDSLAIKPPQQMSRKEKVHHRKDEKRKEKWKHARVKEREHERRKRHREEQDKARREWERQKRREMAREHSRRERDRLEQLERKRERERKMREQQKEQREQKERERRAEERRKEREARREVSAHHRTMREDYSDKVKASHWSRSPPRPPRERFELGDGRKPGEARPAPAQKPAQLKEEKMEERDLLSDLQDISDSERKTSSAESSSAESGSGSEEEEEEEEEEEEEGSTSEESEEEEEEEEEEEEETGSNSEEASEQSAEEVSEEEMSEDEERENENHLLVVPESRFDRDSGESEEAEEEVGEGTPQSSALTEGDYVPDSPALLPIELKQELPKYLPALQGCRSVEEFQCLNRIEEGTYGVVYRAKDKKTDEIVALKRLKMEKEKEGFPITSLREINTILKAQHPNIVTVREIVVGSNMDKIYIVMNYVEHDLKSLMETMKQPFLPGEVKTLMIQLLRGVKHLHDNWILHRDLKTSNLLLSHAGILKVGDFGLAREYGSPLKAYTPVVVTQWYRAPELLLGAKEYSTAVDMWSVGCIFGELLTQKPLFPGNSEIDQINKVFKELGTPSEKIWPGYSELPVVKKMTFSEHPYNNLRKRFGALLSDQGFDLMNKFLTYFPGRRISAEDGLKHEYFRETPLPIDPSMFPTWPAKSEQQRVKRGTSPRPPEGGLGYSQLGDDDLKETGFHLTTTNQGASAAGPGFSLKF

[3] = biological target: Fibroblast growth factor receptor 1 (Homo sapiens, UniProt P11362); experiment: Selectivity interaction (KinomeScan (DiscoverX)) EUB0000695a FGFR1; conditions: at 100 nM
Fibroblast growth factor receptor 1, sequence (P11362 22-822 limits assumed): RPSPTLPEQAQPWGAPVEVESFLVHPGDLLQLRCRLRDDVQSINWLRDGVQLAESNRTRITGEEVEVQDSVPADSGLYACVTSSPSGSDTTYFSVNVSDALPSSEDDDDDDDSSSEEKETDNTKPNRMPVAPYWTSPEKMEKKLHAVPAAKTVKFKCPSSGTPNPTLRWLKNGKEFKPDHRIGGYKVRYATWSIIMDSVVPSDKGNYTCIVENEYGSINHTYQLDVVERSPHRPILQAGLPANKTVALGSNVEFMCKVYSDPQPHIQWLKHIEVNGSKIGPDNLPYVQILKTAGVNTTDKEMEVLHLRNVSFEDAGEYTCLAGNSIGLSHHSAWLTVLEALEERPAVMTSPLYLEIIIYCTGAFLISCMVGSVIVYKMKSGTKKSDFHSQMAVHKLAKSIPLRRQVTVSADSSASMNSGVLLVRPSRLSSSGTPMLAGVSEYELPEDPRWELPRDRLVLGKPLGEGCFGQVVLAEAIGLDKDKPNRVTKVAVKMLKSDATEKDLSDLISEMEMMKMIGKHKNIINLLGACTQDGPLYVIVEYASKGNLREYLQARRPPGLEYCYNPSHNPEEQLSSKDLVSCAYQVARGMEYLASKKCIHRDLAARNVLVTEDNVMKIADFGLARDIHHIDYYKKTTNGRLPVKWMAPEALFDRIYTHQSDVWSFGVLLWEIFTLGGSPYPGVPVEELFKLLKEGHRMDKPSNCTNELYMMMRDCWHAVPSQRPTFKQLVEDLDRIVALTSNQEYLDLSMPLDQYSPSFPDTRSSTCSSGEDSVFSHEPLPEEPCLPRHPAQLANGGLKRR

[4] = biological target: AP2-associated protein kinase 1 (Homo sapiens, UniProt Q2M2I8); experiment: Selectivity interaction (LanthaScreen Eu Kinase Binding Assay) EUB0001632a AAK1; conditions: at 10 µM
AP2-associated protein kinase 1, sequence (Q2M2I8 whole entry, looked up): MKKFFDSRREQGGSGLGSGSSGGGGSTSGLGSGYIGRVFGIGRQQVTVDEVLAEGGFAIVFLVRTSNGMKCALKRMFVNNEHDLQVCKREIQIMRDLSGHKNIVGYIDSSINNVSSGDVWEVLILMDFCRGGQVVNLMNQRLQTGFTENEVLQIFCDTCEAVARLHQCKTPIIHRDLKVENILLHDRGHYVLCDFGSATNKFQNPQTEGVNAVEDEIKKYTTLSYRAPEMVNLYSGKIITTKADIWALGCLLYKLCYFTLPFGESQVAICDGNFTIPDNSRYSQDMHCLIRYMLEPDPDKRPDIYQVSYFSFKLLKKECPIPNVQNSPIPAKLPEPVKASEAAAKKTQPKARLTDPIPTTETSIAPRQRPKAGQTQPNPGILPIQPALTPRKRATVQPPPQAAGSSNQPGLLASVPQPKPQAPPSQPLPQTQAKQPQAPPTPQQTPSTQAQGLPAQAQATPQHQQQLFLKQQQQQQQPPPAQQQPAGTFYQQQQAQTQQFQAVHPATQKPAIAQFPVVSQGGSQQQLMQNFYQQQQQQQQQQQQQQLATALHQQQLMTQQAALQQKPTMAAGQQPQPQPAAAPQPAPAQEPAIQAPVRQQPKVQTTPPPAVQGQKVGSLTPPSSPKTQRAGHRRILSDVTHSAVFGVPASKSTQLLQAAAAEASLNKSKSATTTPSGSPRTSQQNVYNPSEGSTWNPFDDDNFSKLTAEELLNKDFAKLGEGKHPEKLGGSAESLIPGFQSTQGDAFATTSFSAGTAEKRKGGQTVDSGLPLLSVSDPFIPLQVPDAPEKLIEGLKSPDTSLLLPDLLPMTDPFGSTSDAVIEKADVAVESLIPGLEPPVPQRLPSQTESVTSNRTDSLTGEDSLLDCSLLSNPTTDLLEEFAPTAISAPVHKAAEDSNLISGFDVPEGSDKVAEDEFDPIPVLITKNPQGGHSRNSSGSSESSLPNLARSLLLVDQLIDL

[5] = biological target: Serine/threonine-protein kinase 26 (Homo sapiens, UniProt Q9P289); conditions: PBMC, at 1 µM
Serine/threonine-protein kinase 26, sequence (Q9P289 2-416 limits assumed): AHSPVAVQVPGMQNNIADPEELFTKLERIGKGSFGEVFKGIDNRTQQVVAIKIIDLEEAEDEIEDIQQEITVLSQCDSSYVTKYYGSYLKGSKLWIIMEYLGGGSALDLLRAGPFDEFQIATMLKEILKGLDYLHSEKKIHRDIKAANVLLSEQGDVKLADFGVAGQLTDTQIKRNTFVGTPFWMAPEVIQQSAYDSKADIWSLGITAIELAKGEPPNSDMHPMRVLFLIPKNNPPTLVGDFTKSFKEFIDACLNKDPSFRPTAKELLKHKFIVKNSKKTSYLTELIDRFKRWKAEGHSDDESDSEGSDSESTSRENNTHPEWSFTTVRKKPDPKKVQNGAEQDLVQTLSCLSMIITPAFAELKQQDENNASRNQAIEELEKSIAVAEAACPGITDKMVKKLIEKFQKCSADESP

[6] = biological target: T2, Serine/threonine-protein kinase ULK3 (Homo sapiens) (UniProt Q6PHR2); experiment: Selectivity interaction (Kinase panel (DSF assay)) EUB0001558a ULK3
T2 sequence (whole entry): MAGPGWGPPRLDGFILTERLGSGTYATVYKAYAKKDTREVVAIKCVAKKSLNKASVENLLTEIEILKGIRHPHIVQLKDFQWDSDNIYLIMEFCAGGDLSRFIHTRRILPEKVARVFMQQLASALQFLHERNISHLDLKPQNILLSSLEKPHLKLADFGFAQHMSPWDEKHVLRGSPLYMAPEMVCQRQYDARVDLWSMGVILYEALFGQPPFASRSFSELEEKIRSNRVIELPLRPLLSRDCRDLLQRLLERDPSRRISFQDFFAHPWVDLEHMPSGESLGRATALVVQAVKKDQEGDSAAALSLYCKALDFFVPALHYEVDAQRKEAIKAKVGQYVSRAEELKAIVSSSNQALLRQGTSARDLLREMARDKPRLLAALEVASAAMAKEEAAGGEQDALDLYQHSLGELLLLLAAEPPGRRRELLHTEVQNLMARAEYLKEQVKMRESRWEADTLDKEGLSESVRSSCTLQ

[7] = biological target: Cyclin-dependent kinase 4 (Homo sapiens, UniProt P11802); experiment: Selectivity interaction (ActivX KiNativ screen (kinase selectivity in THP-1 cell lysates)) EUB0000639a CDK4; assay type: subcellular; conditions: lysate
Cyclin-dependent kinase 4, sequence (P11802 whole entry): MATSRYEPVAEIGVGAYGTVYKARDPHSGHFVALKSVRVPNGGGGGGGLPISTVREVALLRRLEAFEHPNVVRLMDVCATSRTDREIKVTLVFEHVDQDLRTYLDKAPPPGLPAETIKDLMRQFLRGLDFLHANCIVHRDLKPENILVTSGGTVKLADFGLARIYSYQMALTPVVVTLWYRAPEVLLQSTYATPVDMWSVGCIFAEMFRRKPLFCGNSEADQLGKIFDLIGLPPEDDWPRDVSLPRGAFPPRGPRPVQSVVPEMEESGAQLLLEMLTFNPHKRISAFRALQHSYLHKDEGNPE

[8] = biological target: Protein kinase C theta type (Homo sapiens, UniProt Q04759); experiment: Selectivity interaction (KinomeScan (DiscoverX)) EUB0000655a PRKCQ; conditions: at 10 µM
Protein kinase C theta type, sequence (Q04759 whole entry, looked up): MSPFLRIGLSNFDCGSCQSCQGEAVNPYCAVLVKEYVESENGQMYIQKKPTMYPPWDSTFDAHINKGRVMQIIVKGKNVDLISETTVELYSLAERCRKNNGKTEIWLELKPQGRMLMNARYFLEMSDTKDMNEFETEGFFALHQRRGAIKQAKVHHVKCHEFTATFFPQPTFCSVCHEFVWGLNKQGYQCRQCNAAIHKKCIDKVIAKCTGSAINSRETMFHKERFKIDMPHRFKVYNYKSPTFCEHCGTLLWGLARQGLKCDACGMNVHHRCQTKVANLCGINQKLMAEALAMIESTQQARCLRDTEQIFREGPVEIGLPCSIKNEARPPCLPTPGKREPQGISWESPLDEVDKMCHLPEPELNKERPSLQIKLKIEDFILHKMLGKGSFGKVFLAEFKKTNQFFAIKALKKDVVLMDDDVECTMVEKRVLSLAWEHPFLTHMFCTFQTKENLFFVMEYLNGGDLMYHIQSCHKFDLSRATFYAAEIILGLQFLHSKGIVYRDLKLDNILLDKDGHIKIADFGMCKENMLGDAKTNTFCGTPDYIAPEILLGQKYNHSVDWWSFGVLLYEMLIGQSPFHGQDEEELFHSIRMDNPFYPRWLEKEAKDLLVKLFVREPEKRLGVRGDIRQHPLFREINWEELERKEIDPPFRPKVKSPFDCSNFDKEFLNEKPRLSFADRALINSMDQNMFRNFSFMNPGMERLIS

[9] = biological target: T3, Mitogen-activated protein kinase kinase kinase kinase 2 (Homo sapiens) (UniProt Q12851); experiment: Selectivity interaction (KinomeScan (DiscoverX)) EUB0000655a MAP4K2; conditions: at 10 µM
T3 sequence (whole entry): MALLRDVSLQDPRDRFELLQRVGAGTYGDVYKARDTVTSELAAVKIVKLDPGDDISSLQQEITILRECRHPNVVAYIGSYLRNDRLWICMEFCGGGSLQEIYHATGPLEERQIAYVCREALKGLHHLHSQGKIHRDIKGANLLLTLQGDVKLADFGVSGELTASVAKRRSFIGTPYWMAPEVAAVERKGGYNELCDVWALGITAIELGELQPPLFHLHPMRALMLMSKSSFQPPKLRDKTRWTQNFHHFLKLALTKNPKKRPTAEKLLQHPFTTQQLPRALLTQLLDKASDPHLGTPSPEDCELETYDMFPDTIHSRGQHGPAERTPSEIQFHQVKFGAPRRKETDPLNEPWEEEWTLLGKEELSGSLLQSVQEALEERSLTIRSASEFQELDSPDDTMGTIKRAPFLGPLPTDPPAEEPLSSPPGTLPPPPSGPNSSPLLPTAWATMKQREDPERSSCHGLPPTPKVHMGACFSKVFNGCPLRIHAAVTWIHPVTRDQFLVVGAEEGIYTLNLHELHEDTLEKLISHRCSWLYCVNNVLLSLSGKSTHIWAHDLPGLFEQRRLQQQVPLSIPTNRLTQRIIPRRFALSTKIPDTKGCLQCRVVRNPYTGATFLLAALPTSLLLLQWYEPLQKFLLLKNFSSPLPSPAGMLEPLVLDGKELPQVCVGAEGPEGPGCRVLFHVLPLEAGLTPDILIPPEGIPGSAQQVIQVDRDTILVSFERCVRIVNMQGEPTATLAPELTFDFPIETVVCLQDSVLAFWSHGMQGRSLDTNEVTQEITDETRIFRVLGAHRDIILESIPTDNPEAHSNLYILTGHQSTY

[10] = biological target: Mitogen-activated protein kinase kinase kinase 4 (Homo sapiens) (UniProt Q9Y6R4); conditions: at 10 µM

Non-receptor tyrosine-protein kinase TYK2, sequence (P29597 whole entry): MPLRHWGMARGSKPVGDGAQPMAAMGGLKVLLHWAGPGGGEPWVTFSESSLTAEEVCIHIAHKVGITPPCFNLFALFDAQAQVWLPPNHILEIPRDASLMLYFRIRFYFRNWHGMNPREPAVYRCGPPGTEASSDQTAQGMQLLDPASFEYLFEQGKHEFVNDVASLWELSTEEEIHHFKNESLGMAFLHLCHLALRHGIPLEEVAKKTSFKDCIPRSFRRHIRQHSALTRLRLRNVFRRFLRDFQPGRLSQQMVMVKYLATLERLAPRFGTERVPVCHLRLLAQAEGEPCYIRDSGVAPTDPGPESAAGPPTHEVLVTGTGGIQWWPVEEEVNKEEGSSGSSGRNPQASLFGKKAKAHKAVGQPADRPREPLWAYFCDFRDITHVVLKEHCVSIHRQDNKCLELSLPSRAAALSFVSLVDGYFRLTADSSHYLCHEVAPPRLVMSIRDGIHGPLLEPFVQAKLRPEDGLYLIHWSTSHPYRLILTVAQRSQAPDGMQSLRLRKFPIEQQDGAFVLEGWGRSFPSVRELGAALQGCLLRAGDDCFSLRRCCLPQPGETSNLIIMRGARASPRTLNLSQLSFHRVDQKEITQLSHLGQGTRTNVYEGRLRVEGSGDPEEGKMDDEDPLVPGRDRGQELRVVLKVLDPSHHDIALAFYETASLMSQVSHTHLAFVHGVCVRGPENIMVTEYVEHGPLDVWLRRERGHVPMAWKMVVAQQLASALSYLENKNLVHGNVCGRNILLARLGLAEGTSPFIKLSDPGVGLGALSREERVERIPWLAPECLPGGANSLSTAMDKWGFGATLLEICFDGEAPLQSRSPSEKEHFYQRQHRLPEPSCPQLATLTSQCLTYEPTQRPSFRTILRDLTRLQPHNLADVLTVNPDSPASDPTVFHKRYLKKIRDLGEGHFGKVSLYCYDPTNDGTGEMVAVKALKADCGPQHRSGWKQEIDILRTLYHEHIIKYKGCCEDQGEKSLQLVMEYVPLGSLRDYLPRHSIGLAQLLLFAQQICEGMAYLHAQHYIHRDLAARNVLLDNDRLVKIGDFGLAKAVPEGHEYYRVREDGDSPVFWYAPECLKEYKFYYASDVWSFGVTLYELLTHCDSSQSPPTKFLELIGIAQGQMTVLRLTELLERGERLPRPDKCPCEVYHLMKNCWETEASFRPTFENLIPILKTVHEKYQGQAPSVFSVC

With COCC(=O)NC/C=C/c1ccc2ncnc(Nc3ccc(Oc4ccc(C)nc4)c(C)c3)c2c1 [CP-724714] the % of control [1] was 100%.

With C=CC(=O)Nc1cc(-n2c(=O)ccc3cnc4ccc(-c5ccc(NS(C)(=O)=O)cc5)cc4c32)ccc1C the % of control ([2]; at 1 µM) was 90% and the % of control ([2]; at 10 µM) was 44%.

Compound Cc1cc(F)c(C(=O)Nc2cccc(-c3nncn3C(C)C)n2)cc1-n1cnc(C2CC2)c1 has a % of control [3] of 100%.

In the case of Cn1cc(-n2cnc3c(NCc4nc5cc(Cl)c(Cl)cc5[nH]4)nc(N4CCOCC4)nc32)cn1, the % of inhibition [4] is reported as 4.16%.

In the case of N#Cc1cccc(-c2c[nH]c3ncnc(N4CCOCC4)c23)c1, the % of inhibition [5] is reported as 61%.

In the case of CC(C)(O)[C@H](F)CN1Cc2cc(NC(=O)c3cnn4cccnc34)c(N3CCOCC3)cc2C1=O, the dTM [6] is reported as 6.3 K.

CC[C@@H]1[C@H](F)C(=O)N[C@@H]1COc1nccc2cc(C(N)=O)c(OC)cc12 [ZIMLOVISERTIB] showed a % of inhibition ([7]; at 0.01 µM) of -1.8%, a % of inhibition ([7]; at 0.04 µM) of -3.4% and a % of inhibition ([7]; at 0.2 µM) of -2.3%. For the same compound, the % of inhibition ([7]; at 1 µM) was -9.6% and the % of inhibition ([7]; at 5 µM) was -24.4%.

Work on CN(C)CCOc1ccc(-c2nc(-c3ccncc3)c(-c3ccc4c(c3)CC/C4=N\O)[nH]2)cc1 yielded a % of control [8] of 81% and a % of control [9] of 74%.

Compound CCN(CC)CCCCNc1ncc2cc(-c3cc(OC)cc(OC)c3)c(NC(=O)NC(C)(C)C)nc2n1 has a % of control [10] of 100%.
